Data reported in the supplement of paper PMC10307832.

What was measured:
Test in all cases: relative viability (nuclei count vs DMSO), 5 days (fraction); higher = more cells survive
NCI-H2023 = system: NCI-H2023
How it was run: (§1)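 Dosing by pin tool came one day after lung cancer cell lines were seeded in 1536-well plates, using either one drug or a fixed anchor-drug dose plus five library-drug doses (not always all listed) in √10 steps. After 5 days, nuclei were counted on 4× images. Relative viability is treated-well nuclei count divided by vehicle-well nuclei count, and values are medians of duplicate plates.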

BEN = system: BEN
How it was run: as §1

NCI-H3122 = system: NCI-H3122
How it was run: as §1

NCI-H1666 = system: NCI-H1666
How it was run: as §1

COR-L 105 = system: COR-L 105
How it was run: as §1

NCI-H1437 = system: NCI-H1437
How it was run: as §1

HCC-366 = system: HCC-366
How it was run: as §1

NCI-H661 = system: NCI-H661
How it was run: as §1

LK-2 = system: LK-2
How it was run: as §1

PC-14 = system: PC-14
How it was run: as §1

EKVX = system: EKVX
How it was run: as §1

COR-L23 = system: COR-L23
How it was run: as §1

ABC-1 = system: ABC-1
How it was run: as §1

NCI-H2009 = system: NCI-H2009
How it was run: as §1

NCI-H441 = system: NCI-H441
How it was run: as §1

HARA = system: HARA
How it was run: as §1

SW 900 = system: SW 900
How it was run: as §1

NCI-H727 = system: NCI-H727
How it was run: as §1

201T = system: 201T
How it was run: as §1

LU99A = system: LU99A
How it was run: as §1

NCI-H2170 = system: NCI-H2170
How it was run: as §1

NCI-H1650 = system: NCI-H1650
How it was run: as §1

CAL-12T = system: CAL-12T
How it was run: as §1

NCI-H838 = system: NCI-H838
How it was run: as §1

For `COc1cc(N2CCC(C(N)=O)CC2)ccc1Nc1nc(N)c(Cl)c(Nc2ccccc2S(=O)(=O)C(C)C)n1` [HG-5-88-01] + Cc1cc(Nc2cc(N3CCN(C)CC3)nc(Sc3ccc(NC(=O)C4CC4)cc3)n2)n[nH]1 [Tozasertib] (partner 0.1 µM), the relative viability (NCI-H2023; first compound 0.04 µM) was 0.35, the relative viability (NCI-H2023; first compound 0.1265 µM) was 0.362 and the relative viability (NCI-H2023; first compound 0.4 µM) was 0.262. It also gave a relative viability (NCI-H2023; first compound 1.265 µM) of 0.108, a relative viability (NCI-H2023; first compound 4 µM) of 0.107 and a relative viability (BEN; first compound 0.04 µM) of 0.554. For the same compound, the relative viability (BEN; first compound 0.1265 µM) was 0.482, the relative viability (BEN; first compound 0.4 µM) was 0.509 and the relative viability (BEN; first compound 1.265 µM) was 0.484. The relative viability (BEN; first compound 4 µM) was 0.531, the relative viability (NCI-H3122; first compound 0.04 µM) was 0.221 and the relative viability (NCI-H3122; first compound 0.1265 µM) was 0.146. It also gave a relative viability (NCI-H3122; first compound 0.4 µM) of 0.08, a relative viability (NCI-H3122; first compound 1.265 µM) of 0.112 and a relative viability (NCI-H3122; first compound 4 µM) of 0.0832. For the same compound, the relative viability (NCI-H1666; first compound 0.04 µM) was 0.577, the relative viability (NCI-H1666; first compound 0.1265 µM) was 0.603 and the relative viability (NCI-H1666; first compound 0.4 µM) was 0.556. The relative viability (NCI-H1666; first compound 1.265 µM) was 0.498, the relative viability (NCI-H1666; first compound 4 µM) was 0.346 and the relative viability (COR-L 105; first compound 0.04 µM) was 0.377. The relative viability (COR-L 105; first compound 0.1265 µM) was 0.379, the relative viability (COR-L 105; first compound 0.4 µM) was 0.317 and the relative viability (COR-L 105; first compound 1.265 µM) was 0.312. It also gave a relative viability (COR-L 105; first compound 4 µM) of 0.42, a relative viability (NCI-H1437; first compound 0.04 µM) of 0.409 and a relative viability (NCI-H1437; first compound 0.1265 µM) of 0.398. It also gave a relative viability (NCI-H1437; first compound 0.4 µM) of 0.356, a relative viability (NCI-H1437; first compound 1.265 µM) of 0.301 and a relative viability (NCI-H1437; first compound 4 µM) of 0.316. The relative viability (HCC-366; first compound 0.04 µM) was 0.169, the relative viability (HCC-366; first compound 0.1265 µM) was 0.0937 and the relative viability (HCC-366; first compound 0.4 µM) was 0.0774. For the same compound, the relative viability (HCC-366; first compound 1.265 µM) was 0.0436, the relative viability (HCC-366; first compound 4 µM) was 0.0402 and the relative viability (NCI-H661; first compound 0.04 µM) was 0.354. The relative viability (NCI-H661; first compound 0.1265 µM) was 0.338, the relative viability (NCI-H661; first compound 0.4 µM) was 0.333 and the relative viability (NCI-H661; first compound 1.265 µM) was 0.397. It also gave a relative viability (NCI-H661; first compound 4 µM) of 0.377, a relative viability (LK-2; first compound 0.04 µM) of 0.171 and a relative viability (LK-2; first compound 0.1265 µM) of 0.18. The relative viability (LK-2; first compound 0.4 µM) was 0.14, the relative viability (LK-2; first compound 1.265 µM) was 0.18 and the relative viability (LK-2; first compound 4 µM) was 0.16. For the same compound, the relative viability (PC-14; first compound 0.04 µM) was 0.617, the relative viability (PC-14; first compound 0.1265 µM) was 0.645 and the relative viability (PC-14; first compound 0.4 µM) was 0.602. It also gave a relative viability (PC-14; first compound 1.265 µM) of 0.228, a relative viability (PC-14; first compound 4 µM) of 0.257 and a relative viability (EKVX; first compound 0.04 µM) of 0.356. The relative viability (EKVX; first compound 0.1265 µM) was 0.396, the relative viability (EKVX; first compound 0.4 µM) was 0.374 and the relative viability (EKVX; first compound 4 µM) was 0.286. It also gave a relative viability (COR-L23; first compound 0.04 µM) of 0.202, a relative viability (COR-L23; first compound 0.1265 µM) of 0.196 and a relative viability (COR-L23; first compound 0.4 µM) of 0.168. It also gave a relative viability (COR-L23; first compound 1.265 µM) of 0.165, a relative viability (COR-L23; first compound 4 µM) of 0.109 and a relative viability (ABC-1; first compound 0.04 µM) of 0.15. For the same compound, the relative viability (ABC-1; first compound 0.1265 µM) was 0.204, the relative viability (ABC-1; first compound 0.4 µM) was 0.172 and the relative viability (ABC-1; first compound 1.265 µM) was 0.154. It also gave a relative viability (ABC-1; first compound 4 µM) of 0.179, a relative viability (NCI-H2009; first compound 0.04 µM) of 0.734 and a relative viability (NCI-H2009; first compound 0.1265 µM) of 0.753. The relative viability (NCI-H2009; first compound 0.4 µM) was 0.611, the relative viability (NCI-H2009; first compound 1.265 µM) was 0.578 and the relative viability (NCI-H2009; first compound 4 µM) was 0.451. For the same compound, the relative viability (NCI-H441; first compound 0.04 µM) was 0.696, the relative viability (NCI-H441; first compound 0.1265 µM) was 0.632 and the relative viability (NCI-H441; first compound 0.4 µM) was 0.638. For the same compound, the relative viability (NCI-H441; first compound 1.265 µM) was 0.422, the relative viability (NCI-H441; first compound 4 µM) was 0.332 and the relative viability (HARA; first compound 0.04 µM) was 0.108. It also gave a relative viability (HARA; first compound 0.1265 µM) of 0.132, a relative viability (HARA; first compound 0.4 µM) of 0.0858 and a relative viability (HARA; first compound 1.265 µM) of 0.099. It also gave a relative viability (HARA; first compound 4 µM) of 0.0727, a relative viability (SW 900; first compound 0.04 µM) of 0.533 and a relative viability (SW 900; first compound 0.1265 µM) of 0.656. The relative viability (SW 900; first compound 0.4 µM) was 0.652, the relative viability (SW 900; first compound 1.265 µM) was 0.417 and the relative viability (SW 900; first compound 4 µM) was 0.268. The relative viability (NCI-H727; first compound 0.04 µM) was 0.594, the relative viability (NCI-H727; first compound 0.1265 µM) was 0.665 and the relative viability (NCI-H727; first compound 0.4 µM) was 0.582. It also gave a relative viability (NCI-H727; first compound 1.265 µM) of 0.429, a relative viability (NCI-H727; first compound 4 µM) of 0.429 and a relative viability (201T; first compound 0.04 µM) of 0.963. For the same compound, the relative viability (201T; first compound 0.1265 µM) was 0.903, the relative viability (201T; first compound 0.4 µM) was 0.939 and the relative viability (201T; first compound 1.265 µM) was 0.871. The relative viability (201T; first compound 4 µM) was 0.911, the relative viability (LU99A; first compound 0.04 µM) was 0.29 and the relative viability (LU99A; first compound 0.1265 µM) was 0.301. For the same compound, the relative viability (LU99A; first compound 0.4 µM) was 0.264, the relative viability (LU99A; first compound 1.265 µM) was 0.267 and the relative viability (LU99A; first compound 4 µM) was 0.266. It also gave a relative viability (NCI-H2170; first compound 0.04 µM) of 0.768, a relative viability (NCI-H2170; first compound 0.1265 µM) of 0.67 and a relative viability (NCI-H2170; first compound 0.4 µM) of 0.678. For the same compound, the relative viability (NCI-H2170; first compound 1.265 µM) was 0.464, the relative viability (NCI-H2170; first compound 4 µM) was 0.635 and the relative viability (NCI-H1650; first compound 0.04 µM) was 0.428. The relative viability (NCI-H1650; first compound 0.1265 µM) was 0.396, the relative viability (NCI-H1650; first compound 0.4 µM) was 0.346 and the relative viability (NCI-H1650; first compound 1.265 µM) was 0.174. For the same compound, the relative viability (NCI-H1650; first compound 4 µM) was 0.227, the relative viability (CAL-12T; first compound 0.04 µM) was 0.274 and the relative viability (CAL-12T; first compound 0.1265 µM) was 0.359. For the same compound, the relative viability (CAL-12T; first compound 0.4 µM) was 0.289, the relative viability (CAL-12T; first compound 1.265 µM) was 0.199 and the relative viability (CAL-12T; first compound 4 µM) was 0.243. The relative viability (NCI-H838; first compound 0.04 µM) was 0.234, the relative viability (NCI-H838; first compound 0.1265 µM) was 0.256 and the relative viability (NCI-H838; first compound 0.4 µM) was 0.185. For the same compound, the relative viability (NCI-H838; first compound 1.265 µM) was 0.209 and the relative viability (NCI-H838; first compound 4 µM) was 0.21.
